The test system of data set [1] is BALB/c mice inoculated with CT26 murine colorectal cancer cells. The experiment in a line: First set of experiments: stool consistency and weight change after 5-FU with or without IAP. The format is in vivo. The source says: (§1) The study conducted included evaluation of the effects of administration of an IAP (“SYN-020” is synonymous with IAP and SYN BIAPII) along with a chemotherapeutic treatment with 5-fluorouracil (5-FU) in a murine model. […] Stool consistency was scored as the following: Score 0=Normal (no diarrhea); Score 2=Loose, formed stools; and Score 4=Diarrhea.
The first set of experiments included three groups of BALB/c mice inoculated with CT26 murine colorectal cancer cells into the right flank: (1) a no-treatment control group of 18 male mice (“untreated”); (2) a group of 18 male mice (“vehicle+5-FU”) that received an intraperitoneal (IP) QD (once daily) dose of 30 mg/kg of 5-FU for 5 consecutive days (days 0-4) and a vehicle was administered PO (orally) BID (twice a day) throughout the study (days −3 to +26); and (3) a group of 18 male mice (“SYN BIAPII+5-FU”) that received an IP QD dose of 30 mg/kg of 5-FU for 5 consecutive days (days 0-4) and an IAP (SYN-020) in a dose of 0.5 mg/kg, administered PO BID throughout the study (days −3 to +26).

For data set [2] the test system is unchanged. The experiment in a line: Second set of experiments: mean daily body weight change after 5-FU with or without IAP. It is filed as in vivo. As to conditions: 5-FU 30 mg/kg IP QD days 0-4. As to the method: (§2) The second set of experiments included four groups of BALB/c mice inoculated with CT26 murine colorectal cancer cells into the right flank: (1) a vehicle control group of 30 male mice (“vehicle”); (2) a group of 30 male mice that received a daily treatment dose of 100 U/dose, 0.5 mg/kg of SYN BIAP II alone (“SYN BIAP II”); (3) a group of 30 male mice (“vehicle+5-FU”) that received an IP QD dose of 30 mg/kg of 5-FU for 5 consecutive days (days 0-4) and vehicle treatment; and (4) a group of 30 male mice (“SYN BIAPII+5-FU”) that received an IP QD dose of 30 mg/kg of 5-FU for 5 consecutive days (days 0-4) and an IAP (SYN-020) in a dose of 100 U/dose, 0.5 mg/kg, administered PO BID throughout the study (days −3 to +26).
Cumulative differences in body weight change between treatment groups through 50% common group survival (Day (−3)-16) were assessed by calculating the area under the curve (AUC) for each animal using the trapezoidal transformation.

For data set [3] the test system is unchanged. As to conditions: for Duration of Diarrhea (score = 4): Days < 4: animal-days with stool score < 4; for Duration of Diarrhea (score = 4): Days = 4: animal-days with stool score = 4 (diarrhea); for Duration of Diarrhea (score = 4): % Days = 4: percentage of total animal-days with diarrhea (score=4).
Source text: as §1, §2
Arrows indicate 5-FU administration days. […] The statistical significance of group differences in daily stool scores was assessed on each day by Mann-Whitney rank-sum analysis.
Table 1 below compares the duration of 5-FU-induced diarrhea by calculating the percentage of total animal-days with diarrhea (score=4). Groups were compared by chi-square test.

The mark [4] stands for this setting: 5-FU 30 mg/kg IP QD days 0-4, vehicle or SYN-020 0.5 mg/kg PO BID days -3 to +26.

The values below come from patent US12318434B2, “Alkaline phosphate-based oncology treatments” (Theriva Biologics, Inc., priority 2019, dated 2025).

Entries after “also recorded” stand apart in the source; their conditions may differ.

Turning to `O=c1[nH]cc(F)c(=O)[nH]1` [vehicle + 5-FU, 5-fluorouracil], the “effect of 5-FU administration on stools and weight” value in data set [1] (5-FU 30 mg/kg IP QD days 0-4, all of the treated animals) is “caused loose stools/diarrhea, as well as associated weight loss; also recorded: caused loose stools/diarrhea, and associated weight loss”. Besides, in data set [1] (setting [4]), the “day by which loose stools/diarrhea and associated weight loss recovered” value is no more than 9 days; the “day on which loose stools/diarrhea and associated weight loss peaked” value was 6 days. In data set [2], the “day by which animals regained lost weight” value was roughly 20 days and the “day on which chemotherapy-induced weight loss peaked” value was determined as 7 days. Moreover, the “chemotherapy-induced weight loss at peak (percent change compared to body weight at Day 0)” value in data set [2] (Day 7) was roughly −20%. Besides, in data set [3] (5-FU 30 mg/kg IP QD days 0-4), the “day by which incidence of loose stools generally resolved” value was no more than 12 days and the “day on which incidence of loose stools or diarrhea was first observed” value was determined as 5 days. In addition, in data set [3], the “Duration of Diarrhea (score = 4): Days < 4” value was 245, the “Duration of Diarrhea (score = 4): Days = 4” value was 43 and the “Duration of Diarrhea (score = 4): % Days = 4” value was found to be 14.93%. In addition, the “animal-days with diarrhea compared to untreated animals” value in data set [3] (mouse, in vivo) was “statistically significant cumulative increase”.

B1: SYN BIAPII: intestinal alkaline phosphatase; BIAP II with stop codon and no leader sequence (SYN-020) (SEQ ID NO: 41) (protein)
chain: LIPAEEENPAFWNRQAAQALDVAKKLQPIQTAAKNVILFLGDGMGVPTVTATRILKGQMNGKLGPETPLAMDQFPYVALSKTYNVDRQVPDSAGTATAYLCGVKGNYRTIGVSAAARYNQCNTTRGNEVTSVINRAKKAGKAVGVVTTTRVQHASPAGAYAHTVNRNWYSDADLPADAQKNGCQDIAAQLVYNMDIDVILGGGRMYMFPEGTPDPEYPDDASVNGVRKDKQNLVQEWQAKHQGAQYVWNRTALLQAADDSSVTHLMGLFEPADMKYNVQQDHTKDPTLAEMTEAALQVLSRNPRGFYLFVEGGRIDHGHHDGKAYMALTEAIMFDNAIAKANELTSELDTLILVTADHSHVFSFGGYTLRGTSIFGLAPGKALDSKSYTSILYGNGPGYALGGGSRPDVNGSTSEEPSYRQQAAVPLASETHGGEDVAVFARGPQAHLVHGVQEETFVAHIMAFAGCVEPYTDCNLPAPATATSIPD
modifications: Synthetic polymer.
Consider B1, for which the “recovery from the loose stools/diarrhea symptoms and associated weight loss” value in data set [1] (SYN-020 0.5 mg/kg PO BID plus 5-FU, compared with vehicle+5-FU, p<0.03) is “significantly faster recovery”. For the same molecule, in data set [3], the “Duration of Diarrhea (score = 4): Days < 4” value was 299, the “Duration of Diarrhea (score = 4): Days = 4” value turned out to be 1 and the “Duration of Diarrhea (score = 4): % Days = 4” value was 0.33%. Also, the “stool consistency throughout the course of the analysis” value in data set [3] (mouse, in vivo, 0.5 mg/kg) is reported as “normal stool consistency”.
